≈ marks a conversion by molar mass, not a printed value. Calls of active or inactive are those of the source. No cut-off for these calls is given here.
Tests used:
Histamine H4 receptor [1] = molecular target: T1, Histamine H4 receptor (Homo sapiens, UniProt Q9H3N8); test: Displacement of [3H]histamine from recombinant human histamine H4 receptor
[2] = Metabolic stability in human liver microsomes assessed as half life; type: ADME, Microsome
Histamine H4 receptor [3] = molecular target: T1, Histamine H4 receptor; test: Antagonist activity at recombinant human histamine H4 receptor; type: functional; conditions: read-out: pA2 (converted)
[4] = Solubility of the compound at pH 7; type: physicochemical; conditions: buffer
[5] = Metabolic stability in rat liver microsomes after 15 mins; type: ADME, Microsome; conditions: read-out: Stability
[6] = Metabolic stability in human liver microsomes after 15 mins; type: ADME, Microsome; conditions: read-out: Stability
[7] = Metabolic stability in rat liver microsomes assessed as half life; type: ADME, Microsome
[8] = molecular target: T2, Voltage-gated inwardly rectifying potassium channel KCNH2 (Homo sapiens, UniProt Q12809); test: Inhibition of human ERG by binding assay
T2 sequence (Q12809 whole entry): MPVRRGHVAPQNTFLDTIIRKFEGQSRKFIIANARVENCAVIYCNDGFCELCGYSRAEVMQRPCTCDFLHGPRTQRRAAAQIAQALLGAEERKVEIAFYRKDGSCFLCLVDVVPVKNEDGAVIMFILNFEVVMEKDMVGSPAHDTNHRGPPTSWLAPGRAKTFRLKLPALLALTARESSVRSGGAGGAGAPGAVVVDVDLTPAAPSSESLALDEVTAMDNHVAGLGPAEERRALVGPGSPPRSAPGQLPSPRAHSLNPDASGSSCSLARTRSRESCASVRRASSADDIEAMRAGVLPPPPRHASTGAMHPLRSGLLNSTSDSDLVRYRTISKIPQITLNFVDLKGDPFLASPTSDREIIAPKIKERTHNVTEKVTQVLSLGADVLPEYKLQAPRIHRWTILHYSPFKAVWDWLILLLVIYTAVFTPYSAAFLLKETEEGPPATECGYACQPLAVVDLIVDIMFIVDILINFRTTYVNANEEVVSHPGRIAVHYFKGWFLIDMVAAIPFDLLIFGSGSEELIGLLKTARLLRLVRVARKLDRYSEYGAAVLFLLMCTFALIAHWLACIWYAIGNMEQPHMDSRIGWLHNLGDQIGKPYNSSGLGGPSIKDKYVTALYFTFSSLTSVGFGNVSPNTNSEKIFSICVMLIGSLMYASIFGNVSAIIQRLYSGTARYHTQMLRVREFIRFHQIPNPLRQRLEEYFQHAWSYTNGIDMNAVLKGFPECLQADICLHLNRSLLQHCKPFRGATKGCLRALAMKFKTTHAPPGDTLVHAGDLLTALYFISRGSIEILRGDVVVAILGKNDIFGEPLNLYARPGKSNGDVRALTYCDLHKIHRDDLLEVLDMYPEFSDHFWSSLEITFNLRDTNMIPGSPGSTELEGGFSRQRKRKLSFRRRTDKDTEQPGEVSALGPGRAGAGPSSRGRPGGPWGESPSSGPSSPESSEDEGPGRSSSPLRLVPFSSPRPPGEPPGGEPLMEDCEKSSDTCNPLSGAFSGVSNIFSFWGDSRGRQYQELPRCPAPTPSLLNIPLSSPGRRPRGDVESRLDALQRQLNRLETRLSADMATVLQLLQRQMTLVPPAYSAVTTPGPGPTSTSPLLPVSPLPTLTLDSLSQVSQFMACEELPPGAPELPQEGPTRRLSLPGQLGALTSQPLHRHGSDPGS

[9] = molecular target: T2, Voltage-gated inwardly rectifying potassium channel KCNH2; test: Inhibition of human ERG by patch clamp technique
[10] = Solubility of the compound at pH 2; type: physicochemical; conditions: buffer
[11] = Metabolic stability in dog liver microsomes assessed as half life; type: ADME, Canis lupus familiaris, Microsome
[12] = Fraction unbound in human plasma; type: ADME, cell-free
[13] = Fraction unbound in mouse plasma; type: ADME, cell-free
[14] = Apparent permeability from apical to basolateral side of human Caco2 cells; type: ADME, cell-based; conditions: Caco-2
[15] = Apparent permeability from basolateral to apical side of human Caco2 cells; type: ADME, cell-based; conditions: Caco-2
[16] = Half life in rat at 2 mg/kg, iv; type: ADME, organism-based; set-up: dose 2 mg/kg, route intravenous; conditions: in vivo
[17] = Half life in dog at 2 mg/kg, iv; type: ADME, organism-based, Canis lupus familiaris; set-up: dose 2 mg/kg, route intravenous; conditions: in vivo
[18] = AUC in rat at 2 mg/kg, iv; type: ADME, organism-based; set-up: dose 2 mg/kg, route intravenous; conditions: plasma
[19] = AUC in dog at 2 mg/kg, iv; type: ADME, organism-based, Canis lupus familiaris; set-up: dose 2 mg/kg, route intravenous; conditions: plasma
[20] = Clearance in rat at 2 mg/kg, iv; type: ADME, organism-based; set-up: dose 2 mg/kg, route intravenous; conditions: in vivo
[21] = Clearance in dog at 2 mg/kg, iv; type: ADME, organism-based, Canis lupus familiaris; set-up: dose 2 mg/kg, route intravenous; conditions: in vivo
[22] = Volume of distribution at steady state in rat at 2 mg/kg, iv; type: ADME, organism-based; set-up: dose 2 mg/kg, route intravenous; conditions: in vivo, read-out: Vdss
[23] = Volume of distribution at steady state in dog at 2 mg/kg, iv; type: ADME, organism-based, Canis lupus familiaris; set-up: dose 2 mg/kg, route intravenous; conditions: in vivo, read-out: Vdss
[24] = Half life in rat at 10 mg/kg, po; type: ADME, organism-based; set-up: dose 10 mg/kg, route oral; conditions: in vivo
[25] = Half life in dog at 10 mg/kg, po; type: ADME, organism-based, Canis lupus familiaris; set-up: dose 10 mg/kg, route oral; conditions: in vivo
[26] = Cmax in rat at 10 mg/kg, po; type: ADME, organism-based; set-up: dose 10 mg/kg, route oral; conditions: in vivo
[27] = Cmax in dog at 10 mg/kg, po; type: ADME, organism-based, Canis lupus familiaris; set-up: dose 10 mg/kg, route oral; conditions: in vivo
[28] = Oral bioavailability in rat at 10 mg/kg; type: ADME, organism-based; conditions: in vivo
[29] = Oral bioavailability in dog at 10 mg/kg; type: ADME, organism-based, Canis lupus familiaris; conditions: in vivo
Mus musculus = test: Antiinflammatory activity in BALB/c mouse asthma model assessed as inhibition of ovalbumin-induced eosinophil accumulation in lung lavage at 10 mg/kg, po BID 20 mins prior to each ovalbumin challenge for 4 times measured after 24 hrs by coulter counter assay; type: functional, organism-based; set-up: dose 10 mg/kg

T1 sequence (Q9H3N8 whole entry): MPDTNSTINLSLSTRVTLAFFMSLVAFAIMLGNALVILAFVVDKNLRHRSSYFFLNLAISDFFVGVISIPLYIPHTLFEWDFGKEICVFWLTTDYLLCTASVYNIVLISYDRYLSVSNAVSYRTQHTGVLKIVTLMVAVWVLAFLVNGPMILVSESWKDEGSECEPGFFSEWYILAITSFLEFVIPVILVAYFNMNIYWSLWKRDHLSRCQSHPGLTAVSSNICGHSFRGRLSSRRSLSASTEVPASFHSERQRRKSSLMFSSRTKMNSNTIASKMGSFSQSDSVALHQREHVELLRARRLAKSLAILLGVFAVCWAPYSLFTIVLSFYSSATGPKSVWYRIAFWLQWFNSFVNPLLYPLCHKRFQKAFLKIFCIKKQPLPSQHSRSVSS

SMILES: CN1CCN(c2ncnc3c2sc2ccccc23)CC1
- Ki (Histamine H4 receptor [1]): 53 nM

SMILES: CN[C@@H]1CCN(c2nc(N)nc3c2oc2ccc(Cl)cc23)C1
- Ki (Histamine H4 receptor [1]): 0.4 nM

SMILES: C[C@H]1CN(c2nc(N)nc3c2oc2ncc(Cl)cc23)CCN1
- Ki (Histamine H4 receptor [1]): 885 nM

SMILES: CN[C@@H]1CCN(c2nc(N)nc3c2oc2ccc(F)cc23)C1
- Ki (Histamine H4 receptor [1]): 2 nM

SMILES: CN(C)C1CCN(c2ncnc3c2sc2ccccc23)C1 (stereo not drawn)
- Ki (Histamine H4 receptor [1]): > 10000 nM

SMILES: CN1CCCN(c2nc(N)nc3c2oc2ncc(Cl)cc23)CC1
- Ki (Histamine H4 receptor [1]): 37 nM

SMILES: CN1CCN(c2ncnc3c2oc2ccccc23)CC1
- Ki (Histamine H4 receptor [1]): 56 nM
- half-life [2]: < 0.0833 h

SMILES: CN1CCN(CCCOc2ccc(-c3nc4cc(Cl)ccc4[nH]3)cc2)CC1
- Ki (Histamine H4 receptor [1]): 120 nM

SMILES: Nc1nc(N2CCC[C@@H](N)C2)c2oc3ccc(Cl)cc3c2n1
- Ki (Histamine H4 receptor [1]): 9.1 nM

SMILES: Nc1nc(N2CCNCC2)c2oc3c(Cl)cc(Cl)cc3c2n1
- Ki (Histamine H4 receptor [1]): 138 nM

SMILES: CN[C@@H]1CCN(c2nc(N)nc3c2sc2cc(C(F)(F)F)ccc23)C1
- Ki (Histamine H4 receptor [1]): 125 nM

SMILES: CN[C@@H]1CCN(c2nc(N)nc3c2oc2c(Cl)cc(Cl)cc23)C1
- Ki (Histamine H4 receptor [1]): 8 nM

SMILES: CN[C@@H]1CCN(c2nc(N)nc3c2sc2ccc(F)cc23)C1
- Ki (Histamine H4 receptor [1]): 31 nM

SMILES: CNC1CCN(c2nc(N)nc3c2oc2ccc(Cl)cc23)C1 (stereo not drawn)
- Ki (Histamine H4 receptor [1]): 0.9 nM
- Kb (Histamine H4 receptor [3]): 10 nM
- solubility [4]: 0.054 µM (≈ 0.0172 µg/mL)
- remaining at […] [5]: 100%
- remaining at […] [6]: 100%

SMILES: Cc1csc2c(N3CCCN(C)CC3)ncnc12
- Ki (Histamine H4 receptor [1]): > 10000 nM

SMILES: CN[C@@H]1CCN(c2nc(N)nc3c2oc2ccc(Br)cc23)C1
- Ki (Histamine H4 receptor [1]): 0.7 nM

SMILES: Nc1nc(N2C[C@@H]3C[C@H]2CN3)c2oc3ccc(Cl)cc3c2n1
- Ki (Histamine H4 receptor [1]): 26 nM

SMILES: Nc1nc(N2CCNCC2)c2oc3ccc(Cl)c(Cl)c3c2n1
- Ki (Histamine H4 receptor [1]): 7.7 nM

SMILES: CN[C@@H]1CCN(c2nc(N)nc3c2oc2ncc(Cl)cc23)C1
- Ki (Histamine H4 receptor [1]): 9.4 nM
- Kb (Histamine H4 receptor [3]): 5.01 nM
- half-life [2]: > 3 h
- half-life [7]: > 1.02 h
- solubility [4]: > 0.4 µM
- IC50 [8]: > 10000 nM
- INH [9]: > 3 µM
- solubility [10]: > 0.4 µM
- half-life [11]: > 3 h
- fraction unbound [12]: 0.43
- fraction unbound [13]: 0.18
- Papp A→B [14]: 23 ×10⁻⁶ cm/s
- Papp B→A [15]: 22 ×10⁻⁶ cm/s
- half-life [16]: 1.2 h
- half-life [17]: 9.7 h
- AUC [18]: 1.6 µM·h
- AUC [19]: 5.2 µM·h
- clearance [20]: 68.3 mL/min/kg
- clearance [21]: 21.7 mL/min/kg
- Vd [22]: 6.9 L/kg
- Vd [23]: 16.5 L/kg
- half-life [24]: 6.8 h
- half-life [25]: 10.5 h
- Cmax [26]: 1200 nM
- Cmax [27]: 1800 nM
- bioavailability [28]: 91%
- bioavailability [29]: 91%
- inhibition (Mus musculus): Active

SMILES: Cc1csc2c(N3CCN(C)CC3)ncnc12
- Ki (Histamine H4 receptor [1]): > 205 nM

SMILES: CN1CCN(c2nc(N)nc3c2sc2ccc(Cl)cc23)CC1
- Ki (Histamine H4 receptor [1]): 0.3 nM

SMILES: CN[C@@H]1CCN(c2nc(N)nc3c2sc2ccc(Cl)cc23)C1
- Ki (Histamine H4 receptor [1]): 10 nM

SMILES: Nc1nc(N2C[C@@H]3CCCN[C@@H]3C2)c2oc3ccc(Cl)cc3c2n1
- Ki (Histamine H4 receptor [1]): 21 nM

SMILES: CN1CCN(c2nc(N)nc3c2oc2ccc(Cl)cc23)CC1
- Ki (Histamine H4 receptor [1]): 0.1 nM
- Kb (Histamine H4 receptor [3]): 2 nM
- remaining at […] [5]: 0.3%
- remaining at […] [6]: 84%

SMILES: CN1CCN(c2nc(N)nc3c2oc2ncc(Cl)cc23)CC1
- Ki (Histamine H4 receptor [1]): 33 nM

SMILES: CN1CCN(c2ncnc3c2oc2ccc(Cl)cc23)CC1
- Ki (Histamine H4 receptor [1]): 4.7 nM
- Kb (Histamine H4 receptor [3]): 2.51 nM
- half-life [2]: < 0.0833 h
- half-life [7]: < 0.0833 h
- solubility [4]: 0.053 µM (≈ 0.016 µg/mL)

SMILES: Nc1nc(N2CCNCC2)c2oc3cccc(F)c3c2n1
- Ki (Histamine H4 receptor [1]): 145 nM

SMILES: Nc1nc(N2CCC[C@H](N)C2)c2oc3ccc(Cl)cc3c2n1
- Ki (Histamine H4 receptor [1]): 5.7 nM

SMILES: Nc1nc(N2CC[C@@H](N)C2)c2oc3ncc(Cl)cc3c2n1
- Ki (Histamine H4 receptor [1]): 16 nM

SMILES: CN[C@H]1CCN(c2nc(N)nc3c2sc2ccc(Cl)cc23)C1
- Ki (Histamine H4 receptor [1]): 76 nM

SMILES: Nc1nc(N2C[C@@H]3C[C@H]2CN3)c2oc3cccc(Cl)c3c2n1
- Ki (Histamine H4 receptor [1]): 443 nM

SMILES: Nc1nc(N2C[C@H]3C[C@@H]2CN3)c2oc3ccc(Cl)cc3c2n1
- Ki (Histamine H4 receptor [1]): 104 nM

SMILES: Nc1nc(N2CC3CCNC3C2)c2oc3ncc(Cl)cc3c2n1 (stereo not drawn)
- Ki (Histamine H4 receptor [1]): 139 nM

SMILES: CN(C)C1CCN(c2ncnc3c2sc2ccccc23)CC1
- Ki (Histamine H4 receptor [1]): > 10000 nM

SMILES: CN[C@H]1CCN(c2nc(N)nc3c2sc2ccc(Br)cc23)C1
- Ki (Histamine H4 receptor [1]): 65 nM

SMILES: Nc1nc(N2CCNCC2)c2oc3ncc(Cl)cc3c2n1
- Ki (Histamine H4 receptor [1]): 35 nM

SMILES: CN1CCN(c2nc(N)nc3c4cc(Cl)ccc4[s+]([O-])c23)CC1 (stereo not drawn)
- Ki (Histamine H4 receptor [1]): 1280 nM

SMILES: CN1CCN(c2nc(N)nc3c2oc2ccc(Cl)c(Cl)c23)CC1
- Ki (Histamine H4 receptor [1]): 7.7 nM

SMILES: Nc1nc(N2CC(N)C2)c2oc3ncc(Cl)cc3c2n1
- Ki (Histamine H4 receptor [1]): 613 nM

SMILES: CN[C@H]1CCN(c2nc(N)nc3c2oc2ccc(Cl)cc23)C1
- Ki (Histamine H4 receptor [1]): 2 nM

SMILES: Nc1nc(N2CCNCC2)c2oc3cccc(Cl)c3c2n1
- Ki (Histamine H4 receptor [1]): 1050 nM

SMILES: CN[C@@H]1CCN(c2nc(N)nc3c2oc2ccc(OC)cc23)C1
- Ki (Histamine H4 receptor [1]): 11 nM

SMILES: NC[C@H]1CCN(c2nc(N)nc3c2oc2ccc(Cl)cc23)C1
- Ki (Histamine H4 receptor [1]): 137 nM

SMILES: CNC1CCN(c2ncnc3c2sc2ccccc23)CC1
- Ki (Histamine H4 receptor [1]): > 10000 nM

SMILES: CN1CCN(c2nc(N)nc3c2oc2ccc(F)c(F)c23)CC1
- Ki (Histamine H4 receptor [1]): 156 nM

SMILES: Nc1nc(N2CCNCC2)c2oc3ccc(F)c(F)c3c2n1
- Ki (Histamine H4 receptor [1]): 156 nM

SMILES: Nc1nc(N2CC[C@@H](NCCO)C2)c2oc3ccc(Cl)cc3c2n1
- Ki (Histamine H4 receptor [1]): 46 nM

SMILES: Nc1nc(N2C[C@H]3CCCN[C@H]3C2)c2oc3ccc(Cl)cc3c2n1
- Ki (Histamine H4 receptor [1]): 4.7 nM

SMILES: CN1CCN(c2nc(N)nc3c2sc2cc(Cl)ccc23)CC1
- Ki (Histamine H4 receptor [1]): 18 nM

SMILES: Nc1nc(N2C[C@@H]3C[C@H]2CN3)c2oc3ncc(Cl)cc3c2n1
- Ki (Histamine H4 receptor [1]): > 10000 nM

SMILES: NCC1CN(c2nc(N)nc3c2oc2ncc(Cl)cc23)C1
- Ki (Histamine H4 receptor [1]): 376 nM

SMILES: Nc1nc(N2CCC[C@H](N)C2)c2oc3ccc(C(F)(F)F)cc3c2n1
- Ki (Histamine H4 receptor [1]): 42 nM

SMILES: Nc1nc(N2C[C@@H]3C[C@H]2CN3)c2oc3ccccc3c2n1
- Ki (Histamine H4 receptor [1]): 196 nM

SMILES: CN[C@@H]1CCN(c2nc(N)nc3c2oc2cccc(Cl)c23)C1
- Ki (Histamine H4 receptor [1]): 40 nM

From ChEMBL document CHEMBL1914323, “Tricyclic aminopyrimidine histamine H4 receptor antagonists” (Bioorg Med Chem Lett, 2011)
